{"source": "patent US20250212902A1", "about": "“METHOD AND COMPOSITION FOR IMPROVEMENT OF AGRICULTURAL PRODUCE” (UPL CORPORATION LIMITED, priority 2022, published 2025)", "key": {"[1]": {"test_system": "powdery mildew (Uncinula necator)", "assay": "Control of powdery mildew in grape", "format": "in vivo", "details": "Example 7 Trial 2, 10 applications, 3 day interval", "procedure": "(§1) 10 applications […] were performed with an interval of 3 days with the 1st application being at inflorescence stage (BBCH 53). Severity of disease was evaluated in at least 20 leaves/plot, prior evaluation was performed before the first application, at 3 days after each application and at 7 and 10 days after the last application. Phytotoxicity (0 to 100%) was evaluated before each spray and at 3 days after each application. Post-harvest bunch weight was evaluated at 19 days after harvest. Control of powdery mildew was recorded as % control. Yield was evaluated as Kg/ha. Post-harvest bunch weight was recorded as g/bunch. […] 10 applications […] were performed with an interval of 3 days with the 1st application being at inflorescence stage (BBCH 53). Severity of disease was evaluated in at least 20 leaves/plot, prior evaluation was performed before the first application, at 3 days after each application and at 7 and 10 days after the last application. Phytotoxicity (0 to 100%) was evaluated before each spray and at 3 days after each application. Post-harvest bunch weight was evaluated at 19 days after harvest. Control of powdery mildew was recorded as % control. Post-harvest bunch weight was recorded as g/bunch."}, "[2]": {"test_system": "grape", "assay": "Post-harvest bunch weight in grape (Example 7)", "format": "in vivo", "details": "19 days after harvest, Example 7 Trial 2", "procedure": "as §1"}}, "data": [{"smiles": "O=C([O-])O.[K+]", "note": "[Potassium bicarbonate, potassium bicarbonate]", "values": [{"measurement": "% Control of Uncinula necator", "setting": "[1]", "value": 67.7, "unit": "%"}, {"measurement": "Post-harvest bunch weight (g/bunch)", "setting": "[2]", "value": 420.3, "unit": "g/bunch"}]}]}
